# Test results: the supplement of paper PMC10307832
# Tests used:
# Experiment in all cases: relative viability (nuclei count vs DMSO), 5 days (fraction); higher = more cells survive
# [1] = compound: C[C@]1(c2nc3c(C(N)=O)cccc3[nH]2)CCCN1 [Veliparib] + C[C@@H](Oc1cc(-c2cnn(C3CCNCC3)c2)cnc1N)c1c(Cl)ccc(F)c1Cl [Crizotinib] (partner 1 µM)
# How it was run: (§1)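 One day after seeding in 1536-well plates, lung cancer cell lines were dosed by pin tool. Dosing was either single-drug or a fixed anchor-drug dose plus five library-drug doses (not always all listed) in √10 steps. After 5 days, nuclei were stained in one fix-and-stain step and counted on 4× images, and relative viability is the nuclei count of treated wells over that of vehicle wells, given as the median of duplicate plates.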
# [2] = compound: C[C@]1(c2nc3c(C(N)=O)cccc3[nH]2)CCCN1 [Veliparib] + O=C(c1cc(Cc2n[nH]c(=O)c3ccccc23)ccc1F)N1CCN(C(=O)C2CC2)CC1 [Olaparib] (partner 8 µM)
# How it was run: as §1
# [3] = compound: COC1=CC=C(C=C1)CN2C=CC3=C2C=C(C=C3)C(=O)NO + Cc1nc(Nc2ncc(C(=O)Nc3c(C)cccc3Cl)s2)cc(N2CCN(CCO)CC2)n1 [Dasatinib] (partner 0.075 µM)
# How it was run: as §1
# [4] = compound: COC1=CC=C(C=C1)CN2C=CC3=C2C=C(C=C3)C(=O)NO + CS(=O)(=O)CCNCc1ccc(-c2ccc3ncnc(Nc4ccc(OCc5cccc(F)c5)c(Cl)c4)c3c2)o1 [Lapatinib] (partner 2 µM)
# How it was run: as §1
Cell Line,relative viability ([1]; first compound 0.02 µM),relative viability ([1]; first compound 0.06325 µM),relative viability ([1]; first compound 0.2 µM),relative viability ([1]; first compound 0.6325 µM),relative viability ([1]; first compound 2 µM),relative viability ([2]; first compound 0.02 µM),relative viability ([2]; first compound 0.06325 µM),relative viability ([2]; first compound 0.2 µM),relative viability ([2]; first compound 0.6325 µM),relative viability ([2]; first compound 2 µM),relative viability ([3]; first compound 0.08 µM),relative viability ([3]; first compound 0.253 µM),relative viability ([3]; first compound 0.8 µM),relative viability ([3]; first compound 2.53 µM),relative viability ([3]; first compound 8 µM),relative viability ([4]; first compound 0.08 µM),relative viability ([4]; first compound 0.253 µM),relative viability ([4]; first compound 0.8 µM),relative viability ([4]; first compound 2.53 µM),relative viability ([4]; first compound 8 µM)
NCI-H3122,0.247,0.297,0.26,0.268,0.304,0.628,0.571,0.549,0.619,0.623,0.864,0.869,0.86,0.741,0.527,0.959,0.934,1.03,1.04,0.959
PC-3 [JPC-3],0.996,0.961,0.914,0.96,0.985,1.17,–,1.22,1.06,1.07,0.986,0.974,1.06,1.13,1.03,0.423,0.486,0.493,0.49,0.478
PC-14,0.896,0.898,0.781,0.766,0.766,0.342,0.326,0.368,0.38,0.204,0.236,0.248,0.292,0.26,0.178,0.199,0.349,0.38,0.384,0.373
RERF-LC-KJ,0.893,0.751,0.847,0.784,0.783,1.03,0.795,0.814,0.881,0.85,0.839,0.867,0.761,0.829,0.751,0.428,0.881,0.924,0.95,0.869
SK-LU-1,1.15,0.924,1.07,0.848,0.803,0.492,0.415,0.491,0.364,0.424,0.161,0.154,0.198,0.21,0.164,0.711,0.781,1.04,0.905,0.81
SK-MES-1,0.973,0.901,0.951,0.854,0.956,0.931,0.748,0.77,0.632,0.686,0.475,0.363,0.542,0.396,0.262,0.473,0.519,0.534,0.497,0.446
SW 1573,0.986,0.629,0.781,0.85,0.79,0.57,0.428,0.464,0.42,0.442,–,0.545,0.702,0.561,0.322,–,1.07,1.36,1.2,0.859
UMC-11,0.549,0.654,0.595,0.547,0.577,0.627,0.336,0.485,0.359,0.438,–,0.454,0.422,0.471,0.44,0.374,1.14,1.05,1.02,0.916
